Where a name gives a salt, the structure may show the parent alone. Read-outs that look alike come from different tables or passages of the source.

The target in one assay is MELK (Homo sapiens, UniProt Q14680). Description: Kinase assay: MELK activity, phosphorylation of FITC-labeled histone H3 peptide measured by IMAP fluorescence polarization. The conditions noted are these: read-out: IC50 (μM) (kinase assay). The class given is biochemical. Summed up:
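A FITC-labelled histone H3 peptide served as substrate, with compounds serially diluted to 1% DMSO final. Reactions were stopped with three volumes of IMAP progressive binding solution. After 0.5 h at room temperature, fluorescence polarization was read.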
Background: Polarisation of emitted light reports the rotation of a fluorescent probe.

The test system of another assay is T47D cells. Kind of assay: Cell-based assay: anti-proliferative activity, Cell Counting Kit-8, 72 hours (T47D). Summed up:
(§1)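 T47D, A549 and BT-549 cells, with MELK-negative HT-1197 as control (MELK status checked by western blot), seeded at 2,000–3,000 cells/well. Growth measured by CCK-8 72 hours after inhibitor exposure; IC50 values calculated.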

A further assay deals with A549 cells. Kind of assay: Cell-based assay: anti-proliferative activity, Cell Counting Kit-8, 72 hours (A549). The conditions noted are these: 72 hours. The gist of the method:
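A549 cells seeded in 96-well plates and exposed to candidate inhibitors for 72 hours. Growth measured with Cell Counting Kit-8; IC50 values calculated from the dose response.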
(Tetrazolium assays rely on reduction of a dye to a coloured formazan, in cell work by metabolically active cells.)

Another assay has as its system 22Rv1 cells. Description: Cell-based assay: anti-proliferative activity, Cell Counting Kit-8, 72 hours (22Rv1).
The test system of a further assay is DU4475 cells. Kind of assay: Cell-based assay: anti-proliferative activity, Cell Counting Kit-8, 72 hours (DU4475).
A further assay deals with HT-1197 cells. Description: Cell-based assay: anti-proliferative activity, Cell Counting Kit-8, 72 hours (HT-1197, negative control without MELK expression). The conditions noted are these: Homo sapiens, HT1197, 72 h, HT1197 cells (negative control, no MELK expression), 72 hours. The gist of the method:
as §1

MELK, sequence (Q14680 whole entry, looked up): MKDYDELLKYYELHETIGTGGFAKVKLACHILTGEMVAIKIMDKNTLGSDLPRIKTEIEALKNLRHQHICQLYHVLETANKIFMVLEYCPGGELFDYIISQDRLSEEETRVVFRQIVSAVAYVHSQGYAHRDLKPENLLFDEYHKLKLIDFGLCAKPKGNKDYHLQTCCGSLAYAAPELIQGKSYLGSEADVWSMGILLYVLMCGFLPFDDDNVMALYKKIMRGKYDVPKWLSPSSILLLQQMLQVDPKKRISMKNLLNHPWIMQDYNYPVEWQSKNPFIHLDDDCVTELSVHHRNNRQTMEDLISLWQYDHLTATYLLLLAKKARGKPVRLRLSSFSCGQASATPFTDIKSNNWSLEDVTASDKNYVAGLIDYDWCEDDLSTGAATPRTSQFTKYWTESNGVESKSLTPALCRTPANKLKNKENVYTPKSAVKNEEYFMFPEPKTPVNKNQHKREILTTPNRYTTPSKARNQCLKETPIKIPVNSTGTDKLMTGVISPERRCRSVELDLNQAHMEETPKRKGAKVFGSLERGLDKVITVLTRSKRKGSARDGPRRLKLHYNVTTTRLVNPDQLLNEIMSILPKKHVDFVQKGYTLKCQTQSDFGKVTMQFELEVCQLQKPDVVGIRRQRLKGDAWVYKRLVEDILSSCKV

Regarding `O=C(c1cnc2ccc(-c3cc(Cl)c(O)c(Cl)c3)cc2c1Nc1cccc(CCN2CCCC2)c1)C1CC1` [Example 798, cyclopropyl(6-(3,5-dichloro-4-hydroxyphenyl)-4-(3-(2-(pyrrolidin-1-yl)ethyl)phenylamino)quinolin-3-yl)methanone hydrochloride], the half-inhibitory concentration (IC50) (usually the concentration that gives 50% inhibition) at MELK (hydrochloride) stood at 0.0029 µM; with T47D cells (72 hours, hydrochloride), 0.16 µM; with A549 cells (hydrochloride), 0.019 µM; in the assay on 22Rv1 cells (hydrochloride) it was 0.092 µM; in the assay on DU4475 cells (hydrochloride), 0.02 µM.

For `CC(=O)c1cnc2ccc(-c3cc(F)c(O)c(Cl)c3)cc2c1Nc1cccc(CCN2CCCC2)c1` [Example 803, 1-(6-(3-chloro-5-fluoro-4-hydroxyphenyl)-4-(3-(2-(pyrrolidin-1-yl)ethyl)phenylamino)quinolin-3-yl)ethanone], the IC50 at MELK is 0.016 µM; in the assay with T47D cells (Homo sapiens, T47D, 72 h), 0.65 µM; in the assay on A549 cells (Homo sapiens, A549, 72 h), 0.17 µM; in the assay on 22Rv1 cells (Homo sapiens, 22Rv1, 72 h), 0.44 µM; in the assay on DU4475 cells (Homo sapiens, DU-4475, 72 h), 0.12 µM.

For `CC(=O)c1cnc2ccc(-c3cc(Cl)c(O)c(Cl)c3)cc2c1N[C@H]1CC[C@H](CN2CCC[C@@H]2CO)CC1` [Example 812], the half-maximal inhibitory concentration (IC50) on MELK worked out at 0.0017 µM; with T47D cells (Homo sapiens, T47D, 72 h), 0.15 µM; in the assay with A549 cells (Homo sapiens, A549, 72 h), 0.18 µM; in the assay with 22Rv1 cells (Homo sapiens, 22Rv1, 72 h) it was 0.2 µM; in the assay with DU4475 cells (Homo sapiens, DU-4475, 72 h), 0.086 µM.

With `CC(=O)c1cnc2ccc(-c3cc(Cl)c(O)c(Cl)c3)cc2c1N[C@H]1CC[C@H](CN2CCC(O)C2)CC1` (some centres unmarked) [Example 753], the IC50 at MELK is 0.0015 µM; in the assay with T47D cells (Homo sapiens, T47D, 72 h), 0.13 µM; with A549 cells (Homo sapiens, A549, 72 h), 0.37 µM; in the assay on HT-1197 cells, 71 µM; in the assay on DU4475 cells (Homo sapiens, DU-4475, 72 h), 0.057 µM.

Turning to `CC(=O)c1cnc2ccc(-c3cc(Cl)c(O)c(Cl)c3)cc2c1Nc1cccc(CCN2CCCC2)c1` [Example 802, 1-(6-(3,5-dichloro-4-hydroxyphenyl)-4-(3-(2-(pyrrolidin-1-yl)ethyl)phenylamino)quinolin-3-yl)ethanone hydrochloride], the IC50 at MELK (hydrochloride) is 0.0021 µM; with T47D cells (72 hours, hydrochloride), 0.45 µM; in the assay with A549 cells (hydrochloride), 0.08 µM; in the assay on 22Rv1 cells (hydrochloride), 0.16 µM; in the assay with DU4475 cells (hydrochloride) it was 0.072 µM.

As for `CCC(=O)c1cnc2ccc(-c3cc(Cl)c(O)c(Cl)c3)cc2c1N[C@H]1CC[C@H](N(C)C)CC1` [Example 754, 1-(6-(3,5-dichloro-4-hydroxyphenyl)-4-((trans-4-(dimethylamino)cyclohexyl)amino)quinolin-3-yl)propan-1-one], the IC50 is 0.02 µM on MELK; 0.19 µM in the assay with T47D cells (Homo sapiens, T47D, 72 h); 0.22 µM in the assay on A549 cells (Homo sapiens, A549, 72 h); 10 µM in the assay on HT-1197 cells; 0.072 µM in the assay on DU4475 cells (Homo sapiens, DU-4475, 72 h).

As for `COc1cc(-c2ccc3ncc(C(C)=O)c(N[C@H]4CC[C@H](CN5CCC(O)C5)CC4)c3c2)cc(Cl)c1O` (some centres unmarked) [Example 749], the concentration for half-maximal inhibition (IC50) was 0.0017 µM on MELK; 0.12 µM with T47D cells (Homo sapiens, T47D, 72 h); 0.22 µM with A549 cells (Homo sapiens, A549, 72 h); 6.4 µM with HT-1197 cells; 0.21 µM with DU4475 cells (Homo sapiens, DU-4475, 72 h).

Regarding `CCC(=O)c1cnc2ccc(-c3cc(F)c(O)c(Cl)c3)cc2c1Nc1ccc(N2CCC(N)C2)nc1` (centres unmarked) [Example 760, 1-(4-(6-(3-aminopyrrolidin-1-yl)pyridin-3-ylamino)-6-(3-chloro-5-fluoro-4-hydroxyphenyl)quinolin-3-yl)propan-1-one], the IC50 was 0.0034 µM at MELK; 0.0087 µM with T47D cells (Homo sapiens, T47D, 72 h); 0.031 µM in the assay on A549 cells (Homo sapiens, A549, 72 h); 0.77 µM with HT-1197 cells; 0.016 µM in the assay on DU4475 cells (Homo sapiens, DU-4475, 72 h).

As for `CC(=O)c1cnc2ccc(-c3cc(F)c(O)c(Cl)c3)cc2c1N[C@@H]1CCC[C@@H](CN(C)C)C1` [Example 751, 1-(6-(3-chloro-5-fluoro-4-hydroxyphenyl)-4-((1R,3R)-3-((dimethylamino)methyl)cyclohexylamino)quinolin-3-yl)ethanone], the IC50 at MELK is 0.0067 µM; with T47D cells (Homo sapiens, T47D, 72 h), 0.32 µM; with A549 cells (Homo sapiens, A549, 72 h), 0.58 µM; in the assay with HT-1197 cells it was 1.7 µM; in the assay with DU4475 cells (Homo sapiens, DU-4475, 72 h) it was 0.29 µM.

As for `O=C(c1cnc2ccc(-c3cc(F)c(O)c(Cl)c3)cc2c1Nc1cccc(CCN2CCCC2)c1)C1CC1` [Example 800, (6-(3-chloro-5-fluoro-4-hydroxyphenyl)-4-(3-(2-(pyrrolidin-1-yl)ethyl)phenylamino)quinolin-3-yl)(cyclopropyl)methanone hydrochloride], the 50% inhibitory concentration (IC50) at MELK (hydrochloride) is 0.012 µM; in the assay on T47D cells (72 hours, hydrochloride), 0.26 µM; in the assay on A549 cells (hydrochloride), 0.041 µM; in the assay with 22Rv1 cells (hydrochloride) it was 0.17 µM; with DU4475 cells (hydrochloride), 0.046 µM.

Consider `CC(=O)c1cnc2ccc(-c3cc(Cl)c(O)c(Cl)c3)cc2c1N[C@H]1CC[C@H](CN2CCC[C@H]2CO)CC1` [Example 792, 1-(6-(3,5-dichloro-4-hydroxyphenyl)-4-((1S,4r)-4-(((S)-2-(hydroxymethyl)pyrrolidin-1-yl)methyl)cyclohexylamino)quinolin-3-yl)ethanone], for which the IC50 stood at 0.0011 µM on MELK; 0.079 µM in the assay with T47D cells (Homo sapiens, T47D, 72 h); 0.1 µM in the assay with A549 cells (Homo sapiens, A549, 72 h); 0.12 µM with 22Rv1 cells (Homo sapiens, 22Rv1, 72 h); 0.073 µM in the assay with DU4475 cells (Homo sapiens, DU-4475, 72 h).

In the case of `CN(C)CCNc1ccc(Nc2c(C(=O)C3CC3)cnc3ccc(-c4cc(Cl)c(O)c(Cl)c4)cc23)cn1` [Example 747, cyclopropyl(6-(3,5-dichloro-4-hydroxyphenyl)-4-(6-(2-(dimethylamino)ethylamino)pyridin-3-ylamino)quinolin-3-yl)methanone], the IC50 was 0.0043 µM on MELK; 0.16 µM in the assay on T47D cells (Homo sapiens, T47D, 72 h); 0.091 µM in the assay with A549 cells (Homo sapiens, A549, 72 h); 2.6 µM in the assay on HT-1197 cells; 0.043 µM in the assay with DU4475 cells (Homo sapiens, DU-4475, 72 h).

Take `CC(=O)c1cnc2ccc(-c3cc(Cl)c(O)c(Cl)c3)cc2c1Nc1cccc(CCN2CCCC2)c1` [Example 801, 1-{6-(3,5-Dichloro-4-hydroxyphenyl)-4-[3-(2-(pyrrolidin-1-yl)ethyl)phenylamino]quinolin-3-yl}ethanone]: the IC50 turned out to be 0.004 µM on MELK; 0.37 µM in the assay with T47D cells (Homo sapiens, T47D, 72 h); 0.081 µM in the assay with A549 cells (Homo sapiens, A549, 72 h); 0.15 µM in the assay with 22Rv1 cells (Homo sapiens, 22Rv1, 72 h); 0.06 µM in the assay with DU4475 cells (Homo sapiens, DU-4475, 72 h).

`CC(=O)c1cnc2ccc(-c3cc(Cl)c(O)c(Cl)c3)cc2c1Nc1ccc(NCCN(C)C)nc1` [Example 758, 1-(6-(3,5-dichloro-4-hydroxyphenyl)-4-(6-(2-(dimethylamino)ethylamino)pyridin-3-ylamino)quinolin-3-yl)ethanone]: the IC50 at MELK is 0.0053 µM; in the assay with T47D cells (Homo sapiens, T47D, 72 h), 0.15 µM; in the assay with A549 cells (Homo sapiens, A549, 72 h), 0.22 µM; with HT-1197 cells it was 24 µM; in the assay on DU4475 cells (Homo sapiens, DU-4475, 72 h), 0.055 µM.

`COc1cc(-c2ccc3ncc(C(=O)C4CC4)c(Nc4ccc(NCCN(C)C)nc4)c3c2)cc(Cl)c1O` [Example 746, (6-(3-chloro-4-hydroxy-5-methoxyphenyl)-4-(6-(2-(dimethylamino)ethylamino)pyridin-3-ylamino)quinolin-3-yl)(cyclopropyl)methanone]: the IC50 at MELK worked out at 0.0029 µM; in the assay on T47D cells (Homo sapiens, T47D, 72 h) it was 0.23 µM; in the assay on A549 cells (Homo sapiens, A549, 72 h), 0.18 µM; with HT-1197 cells, 6.2 µM; in the assay on DU4475 cells (Homo sapiens, DU-4475, 72 h), 0.11 µM.

On to `CCC(=O)c1cnc2ccc(-c3cc(Cl)c(O)c(OC)c3)cc2c1N[C@H]1CC[C@H](N(C)C)CC1` [Example 755], for which the IC50 was 0.0018 µM at MELK; 0.35 µM with T47D cells (Homo sapiens, T47D, 72 h); 0.34 µM in the assay on A549 cells (Homo sapiens, A549, 72 h); 3.4 µM with HT-1197 cells; 0.21 µM with DU4475 cells (Homo sapiens, DU-4475, 72 h).
